Assay results taken from patent publication US5633382A, “Histamine H3 -receptor antagonists and therapeutic uses thereof” (The University of Toledo, priority 1994, dated 1997).

Key:
[1] = system: H3 receptors in the cortex; assay: Blood-brain barrier penetration by ex vivo binding of [3H]-Nα-methylhistamine to cortex homogenate; format: in vivo, rat
Protocol: Blood-brain barrier penetration in rats was assessed by an ex vivo binding procedure. Young adult male Long-Evans rats were injected i.p. with saline or H3 antagonists in saline. At various times after injection animals were sacrificed, the cortex was removed, homogenized in 50 mM Na/K-phosphate buffer, pH 7.4, and the binding of 1 nM [^3 H]-N^α -methylhistamine was measured using 400 μg protein of the homogenate. Nonspecific binding was accounted for by the inclusion of excess thioperamide in some samples. Under these conditions, the binding was approximately 90% specific.

histamine H3 -receptor = assay: Reversal of the soporific effect of (R)α-methylhistamine in mice; format: in vivo, mouse
Protocol: The overall strategy to show central nervous system antagonist activity was to challenge effects of the agonist (R)α-methylhistamine. Therefore, the first objective was to establish a dose response curve for behavioral effects of (R)α-methylhistamine. Male albino CF-1 mice weighing 20-30 g were used. Saline or (R)α-methylhistamine in saline was injected i.p. in a volume ≤0.4 ml. […] Animals were scored for the presence (1) or absence (0) of the behavior and the results were reported as the accumulated score for a 30 minute period (maximum score=9).
To assess the effects of antagonists, they were administered with the (R)α-methylhistamine in saline.

histamine H3 receptors = settings: cited from earlier work
[2] = Behavioral effects (sleeping) after i.p. injection in mice; format: in vivo, mouse
[3] = system: Calcium channel (w-Conotoxin); format: binding; settings: 10^-5 M
[4] = system: Adenylate Cyclase (Forskolin); assay: NOVASCREEN receptor selectivity assay; format: binding; settings: 10^-5 M
Source text: (§1) represent the average of duplicate tubes at each of the concentrations

NPY = assay: NOVASCREEN receptor selectivity assay; format: binding; settings: 10^-5 M
Source text: as §1

GABAA = assay: NOVASCREEN receptor selectivity assay; format: binding; settings: 10^-5 M
Source text: as §1

Substance K = assay: NOVASCREEN receptor selectivity assay; format: binding; settings: 10^-5 M
Source text: as §1

Dopamine 1 = assay: NOVASCREEN receptor selectivity assay; format: binding; settings: 10^-5 M
Source text: as §1

CCK Peripheral = assay: NOVASCREEN receptor selectivity assay; format: binding; settings: 10^-5 M
Source text: as §1

EGF = assay: NOVASCREEN receptor selectivity assay; format: binding; settings: 10^-5 M
Source text: as §1

CCK Central = assay: NOVASCREEN receptor selectivity assay; format: binding; settings: 10^-5 M
Source text: as §1

Potassium channel = assay: NOVASCREEN receptor selectivity assay; format: binding; settings: 10^-5 M
Source text: as §1

Arg-Vasopressin V1 = assay: NOVASCREEN receptor selectivity assay; format: binding; settings: 10^-5 M
Source text: as §1

[5] = system: Calcium channel (Nifedipine); assay: NOVASCREEN receptor selectivity assay; format: binding; settings: 10^-5 M
Source text: as §1

Chloride channel = assay: NOVASCREEN receptor selectivity assay; format: binding; settings: 10^-5 M
Source text: as §1

Serotonin 2 = assay: NOVASCREEN receptor selectivity assay; format: binding; settings: 10^-5 M
Source text: as §1

NGF = assay: NOVASCREEN receptor selectivity assay; format: binding; settings: 10^-5 M
Source text: as §1

MK-801 = assay: NOVASCREEN receptor selectivity assay; format: binding; settings: 10^-5 M
Source text: as §1

Angiotensin = assay: NOVASCREEN receptor selectivity assay; format: binding; settings: 10^-5 M
Source text: as §1

Adenosine = assay: NOVASCREEN receptor selectivity assay; format: binding; settings: 10^-5 M
Source text: as §1

Dopamine 2 = assay: NOVASCREEN receptor selectivity assay; format: binding; settings: 10^-5 M
Source text: as §1

Benzodiazephine = assay: NOVASCREEN receptor selectivity assay; format: binding; settings: 10^-5 M
Source text: as §1

ANF (rat) = assay: NOVASCREEN receptor selectivity assay; format: binding; settings: 10^-5 M
Source text: as §1

GABAB = assay: NOVASCREEN receptor selectivity assay; format: binding; settings: 10^-5 M
Source text: as §1

Kainate = assay: NOVASCREEN receptor selectivity assay; format: binding; settings: 10^-5 M
Source text: as §1

Inositol Triphosphate = assay: NOVASCREEN receptor selectivity assay; format: binding; settings: 10^-5 M
Source text: as §1

Glycine (excitatory) = assay: NOVASCREEN receptor selectivity assay; format: binding; settings: 10^-5 M
Source text: as §1

Somatostatin = assay: NOVASCREEN receptor selectivity assay; format: binding; settings: 10^-5 M
Source text: as §1

PCP = assay: NOVASCREEN receptor selectivity assay; format: binding; settings: 10^-5 M
Source text: as §1

NMDA = assay: NOVASCREEN receptor selectivity assay; format: binding; settings: 10^-5 M
Source text: as §1

VIP = assay: NOVASCREEN receptor selectivity assay; format: binding; settings: 10^-5 M
Source text: as §1

[6] = system: Quisqualate (Excitatory Amino Acids); assay: NOVASCREEN receptor selectivity assay; format: binding; settings: 10^-5 M
Source text: as §1

Glycine (Inhibitory) = assay: NOVASCREEN receptor selectivity assay; format: binding; settings: 10^-5 M
Source text: as §1

[7] = system: Protein Kinase C (Phorbol Ester); assay: NOVASCREEN receptor selectivity assay; format: binding; settings: 10^-5 M
Source text: as §1

Neurotensin = assay: NOVASCREEN receptor selectivity assay; format: binding; settings: 10^-5 M
Source text: as §1

Substance P = assay: NOVASCREEN receptor selectivity assay; format: binding; settings: 10^-5 M
Source text: as §1

Serotonin 1 = assay: NOVASCREEN receptor selectivity assay; format: binding; settings: 10^-5 M
Source text: as §1

Bombesin = assay: NOVASCREEN receptor selectivity assay; format: binding; settings: 10^-5 M
Source text: as §1

[8] = Toxicity observed in testing to date; format: in vivo; settings: all testing to date, even at high doses
[9] = system: adenosine, excitory or inhibitory amino acid, dopamine, serotonin, or a broad range of petidergic receptors, or to ion channel proteins, peptide factor or …; assay: NOVASCREEN receptor selectivity study, panel as a whole; format: binding; settings: 10^-5 M
[10] = dogs, 162 mg/kg/day, repeated dose; cited from earlier work
[11] = peptic ulcer patients; cited from earlier work
[12] = animal toxicity studies or clinical usage; cited from earlier work

Compound: S=C(NC1CCCCC1)N1CCC(c2cnc[nH]2)CC1 [Thioperamide]
- binding of [3H]-Nα-methylhistamine to cortical H3 receptors / blood-brain barrier penetration ([1]; i.p. 2, 5, and 10 mg/kg, 15 min after injection): decreased the binding of [^3 H]-Nα-methylhistamine to H3 receptors in the cortex
- inhibition of soporific effect of (R)α-methylhistamine (histamine H3 -receptor; agonist 30 mg/kg): able to inhibit the soporific effect
- dose required to inhibit histamine release from the brain (histamine H3 receptors; rats): relatively high doses are required in vivo
- blood-brain-barrier penetration (histamine H3 receptors; suggested by Ganellin et al.): poor penetration through the blood-brain-barrier
- behavior ([2]; thioperamide alone, without agonist): very active, exhibiting normal behaviors

Compound: O=C(CCCCC1CCCCC1)N1CCC(c2c[nH]cn2)CC1 [Compound 2016]
- reversal of soporific effect of R(-)-alphamethylhistamine (histamine H3 -receptor; both drugs administered peripherally): reverses the soporific effect

Compound: C[C@@H](N)Cc1c[nH]cn1 [(R)α-methylhistamine]
- sleeping ([2]; i.p. 15 to 35 mg/kg, one hour after injection, also evident at 30 minutes): dose-dependent (range of 15 to 35 mg/kg) increase in sleeping

Compound: O=C(CCCCC1CCCCC1)N1CCC(c2c[nH]cn2)CC1 [Compound 1, 4-(1-CYCLOHEXYLVALEROYL-4-PIPERIDYL) 1H-IMIDAZOLE]
- Initial Percent Inhibition (Average; N = 2) [3]: 1.9%
- Initial Percent Inhibition (Average; N = 2) [4]: 2.1%
- Initial Percent Inhibition (Average; N = 2) (NPY): -8.7%
- Initial Percent Inhibition (Average; N = 2) (GABAA): 0.6%
- Initial Percent Inhibition (Average; N = 2) (Substance K): 29.2%
- Initial Percent Inhibition (Average; N = 2) (Dopamine 1): 6.4%
- Initial Percent Inhibition (Average; N = 2) (CCK Peripheral): 6.9%
- Initial Percent Inhibition (Average; N = 2) (EGF): 18.1%
- Initial Percent Inhibition (Average; N = 2) (CCK Central): 18.6%
- Initial Percent Inhibition (Average; N = 2) (Potassium channel): 7.7%
- Initial Percent Inhibition (Average; N = 2) (Arg-Vasopressin V1): 10.1%
- Initial Percent Inhibition (Average; N = 2) [5]: 8.1%
- Initial Percent Inhibition (Average; N = 2) (Chloride channel): -3.4%
- Initial Percent Inhibition (Average; N = 2) (Serotonin 2): 10.5%
- Initial Percent Inhibition (Average; N = 2) (NGF): 17.1%
- Initial Percent Inhibition (Average; N = 2) (MK-801): -8.6%
- Initial Percent Inhibition (Average; N = 2) (Angiotensin): 6.5%
- Initial Percent Inhibition (Average; N = 2) (Adenosine): -3.0%
- Initial Percent Inhibition (Average; N = 2) (Dopamine 2): 3.5%
- Initial Percent Inhibition (Average; N = 2) (Benzodiazephine): 2.7%
- Initial Percent Inhibition (Average; N = 2) (ANF (rat)): 0.1%
- Initial Percent Inhibition (Average; N = 2) (GABAB): 0.0%
- Initial Percent Inhibition (Average; N = 2) (Kainate): 42.1%
- Initial Percent Inhibition (Average; N = 2) (Inositol Triphosphate): 9.2%
- Initial Percent Inhibition (Average; N = 2) (Glycine (excitatory)): 1.8%
- Initial Percent Inhibition (Average; N = 2) (Somatostatin): 4.1%
- Initial Percent Inhibition (Average; N = 2) (PCP): 9.7%
- Initial Percent Inhibition (Average; N = 2) (NMDA): -4.5%
- Initial Percent Inhibition (Average; N = 2) (VIP): 17.1%
- Initial Percent Inhibition (Average; N = 2) [6]: -1.8%
- Initial Percent Inhibition (Average; N = 2) (Glycine (Inhibitory)): 17.4%
- Initial Percent Inhibition (Average; N = 2) [7]: 0.9%
- Initial Percent Inhibition (Average; N = 2) (Neurotensin): -10.5%
- Initial Percent Inhibition (Average; N = 2) (Substance P): 20.0%
- Initial Percent Inhibition (Average; N = 2) (Serotonin 1): -3.6%
- Initial Percent Inhibition (Average; N = 2) (Bombesin): -5.5%
- blood-brain barrier penetration ([1]; i.p. 50 and 70 mg/kg, one hour after injection): penetrates the blood-brain barrier
- toxicity [8]: no toxicity
- inhibition of soporific effect of (R)α-methylhistamine (histamine H3 -receptor; agonist 25 mg/kg): inhibited the soporific effect
- significant binding to other receptors [9]: no significant binding

Compound: C/N=C(\S)NCCSCc1[nH]cnc1C [metiamide]
- agranulocytosis [10]: incidences of agranulocytosis
- granulocytopenia [11]: low incidence of granulocytopenia

Compound: CN/C(=N/CCSCc1nc[nH]c1C)NC#N [cimetidine]
- granulocytopenia or other side effects [12]: did not cause granulocytopenia, or any other side effects
